Data published in patent US20090131304A1, “Semi-Synthetic Desmethyl-Vancomycin-Based Glycopeptides With Antibiotic Activity” (Novartis Vaccines and Diagnostics, Inc., priority 2005, published 2009).
Values after ≈ are worked out from the molar mass of the structure shown. Like-named read-outs stand apart in the source and are kept apart here.

Key:
Assay type in all cases: cell-based
[1] = test system: glycopeptide-intermediate Staphylococus aureus (GISA) (D); assay: MIC, NCCLS microdilution broth procedure, GISA (D)
Protocol: (§1) The following table identifies specific species of compounds according to the present invention and information concerning their associated antibacterial activity. The antibacterial activity of three compounds in accordance with the present invention (N-biphenyl-methyl-norvacomycin (A); N-chloro-biphenyl-methyl-norvacomycin (B) and desmethyl-vancomycin-gly-p-n-octyloxybenzyl (C)) were tested and compared to unmodified vancomycin (Van) and norvancoycin (Nor). MIC (minimum inhibitory concentration) was measured according to NCCLS standards using the microdilution broth procedure. Serial dilutions of the compounds were placed in a 96-well microplate containing Mueller-Hinton medium. Based on absorbance of 600 nm, diluted overnight cultures were placed in the wells at a final concentration of 5×10^5 cfu/mL. The plate was then placed in a culture box at 35° C. The next day, MIC was determined by visual observation of the plates.
(§2) The glycopeptides were tested against a variety of strains well known in the art for such testing, including methicillin-susceptible Staphylococus aureus (MSSA), methicillin-susceptible Staphylococus epidermidis (MSSE), methicillin-resistant Staphylococus aureus (MRSA), methicillin-resistant Staphylococus epidermidis (MRSE), and glycopeptide-intermediate Staphylococus aureus (GISA). Results are shown in the Table 1 as minimum inhibitory concentration (MIC) in units of μg/ml: […]

[2] = test system: glycopeptide-intermediate Staphylococus aureus (GISA) (V); assay: MIC, NCCLS microdilution broth procedure, GISA (V)
Protocol: as §1, §2

[3] = test system: methicillin-resistant Staphylococus aureus (MRSA); assay: MIC, NCCLS microdilution broth procedure, MRSA; conditions: for MIC: Staphylococcus aureus, MRSA
Protocol: as §1, §2

[4] = test system: methicillin-susceptible Staphylococus epidermidis (MSSE); assay: MIC, NCCLS microdilution broth procedure, MSSE; conditions: for MIC: read-out: minimum inhibitory concentration (MIC)
Protocol: as §1, §2

[5] = test system: methicillin-susceptible Staphylococus aureus (MSSA); assay: MIC, NCCLS microdilution broth procedure, MSSA; conditions: for MIC: Staphylococcus aureus, read-out: minimum inhibitory concentration (MIC)
Protocol: as §1, §2

[6] = test system: methicillin-resistant Staphylococus epidermidis (MRSE); assay: MIC, NCCLS microdilution broth procedure, MRSE; conditions: for MIC: Staphylococcus epidermidis, read-out: minimum inhibitory concentration (MIC)
Protocol: as §1, §2

[7] = GISA (D) strain # 68, read-out: minimum inhibitory concentration (MIC)
[8] = GISA (V) strain # 68, read-out: minimum inhibitory concentration (MIC)
[9] = GISA (V) strain # 143, read-out: minimum inhibitory concentration (MIC)
[10] = MRSA strain # 134, read-out: minimum inhibitory concentration (MIC)
[11] = MRSA strain # 143, read-out: minimum inhibitory concentration (MIC)
[12] = read-out: minimum inhibitory concentration (MIC)

MIC [1, 7] [µg/mL]	MIC [2, 8] [µg/mL]	MIC [2, 9] [µg/mL]	MIC [3, 10] [µg/mL]	MIC [3, 11] [µg/mL]	MIC ([4]; MSSE strain # 3) [µg/mL]	MIC ([5]; MSSA strain # 68) [µg/mL]	MIC ([6]; MRSE strain # 24) [µg/mL]	Structure (SMILES)	minimum inhibitory concentration (MIC) ([1]; GISA (D) strain # 143) [µg/mL]	minimum inhibitory concentration (MIC) ([4]; MSSE strain # 10) [µg/mL]	minimum inhibitory concentration (MIC) ([5]; MSSA strain # 83) [µg/mL]	minimum inhibitory concentration (MIC) ([6]; MRSE strain # 25) [µg/mL]	minimum inhibitory concentration (MIC) ([6]; MRSE strain # 26) [µg/mL]	MIC [4] [µg/mL]	MIC ([5]; MSSA) [µg/mL]	MIC ([6]; MRSE) [µg/mL]	minimum inhibitory concentration (MIC) ([2]; GISA (V) strain # 143) [µg/mL]	minimum inhibitory concentration (MIC) ([3]; MRSA strain # 143) [µg/mL]	also measured
8 (≈ 5 µM)	8 (≈ 5 µM)	4 (≈ 2.5 µM)	2 (≈ 1.25 µM)	4 (≈ 2.5 µM)	4 (≈ 2.5 µM)	2 (≈ 1.25 µM)	4 (≈ 2.5 µM)	CC(C)C[C@H](N)C(=O)N[C@H]1C(=O)N[C@@H](CC(N)=O)C(=O)N[C@H]2C(=O)N[C@H]3C(=O)NC(C(=O)N[C@H](C(=O)O)c4cc(O)cc(O)c4-c4cc3ccc4O)[C@H](O)c3ccc(c(Cl)c3)Oc3cc2cc(c3OC2O[C@H](CO)[C@@H](O)[C@H](O)C2O[C@H]2C[C@](C)(NCc3ccc(-c4ccccc4)cc3)[C@H](O)[C@H](C)O2)Oc2ccc(cc2Cl)[C@H]1O (some centres unmarked) [Compound A, N-Biphenyl-Methyl-Desmethyl-vancomycin]	8 (≈ 5 µM)	4 (≈ 2.5 µM)	2 (≈ 1.25 µM)	4 (≈ 2.5 µM)	4 (≈ 2.5 µM)						
1 (≈ 0.611 µM)	1 (≈ 0.611 µM)	1 (≈ 0.611 µM)	0.5 (≈ 0.306 µM)	0.5 (≈ 0.306 µM)	0.5 (≈ 0.306 µM)	0.5 (≈ 0.306 µM)	0.5 (≈ 0.306 µM)	CC(C)C[C@H](N)C(=O)N[C@H]1C(=O)N[C@@H](CC(N)=O)C(=O)N[C@H]2C(=O)N[C@H]3C(=O)NC(C(=O)N[C@H](C(=O)O)c4cc(O)cc(O)c4-c4cc3ccc4O)[C@H](O)c3ccc(c(Cl)c3)Oc3cc2cc(c3OC2O[C@H](CO)[C@@H](O)[C@H](O)C2O[C@H]2C[C@](C)(NCc3ccc(-c4ccc(Cl)cc4)cc3)[C@H](O)[C@H](C)O2)Oc2ccc(cc2Cl)[C@H]1O (some centres unmarked) [Compound B, N-Chloro-Biphenyl-Methyl-Desmethyl-vancomycin]	1 (≈ 0.611 µM)	0.5 (≈ 0.306 µM)	0.5 (≈ 0.306 µM)	0.5 (≈ 0.306 µM)	0.5 (≈ 0.306 µM)						
								CCCCCCCCOc1ccc(CNCC(=O)N[C@@]2(C)C[C@H](OC3C(Oc4c5cc6cc4Oc4ccc(cc4Cl)[C@@H](O)[C@@H](NC(=O)[C@@H](N)CC(C)C)C(=O)N[C@@H](CC(N)=O)C(=O)N[C@H]6C(=O)N[C@H]4C(=O)NC(C(=O)N[C@H](C(=O)O)c6cc(O)cc(O)c6-c6cc4ccc6O)[C@H](O)c4ccc(c(Cl)c4)O5)O[C@H](CO)[C@@H](O)[C@@H]3O)O[C@@H](C)[C@H]2O)cc1 (some centres unmarked) [Compound C, Desmethyl-vancomycin-Gly-p-n-Octyloxybenzyl]	4 (≈ 2.34 µM)	1 (≈ 0.585 µM)	2 (≈ 1.17 µM)	2 (≈ 1.17 µM)	2 (≈ 1.17 µM)	1 (≈ 0.585 µM)	2 (≈ 1.17 µM)	2 (≈ 1.17 µM)			MIC [1, 12]: 4 µg/mL (≈ 2.34 µM); MIC ([2]; read-out: minimum inhibitory concentration (MIC), GISA (V) strain # 68): 4 µg/mL (≈ 2.34 µM); MIC ([2]; read-out: minimum inhibitory concentration (MIC), GISA (V) strain # 143): 2 µg/mL (≈ 1.17 µM); MIC ([3]; read-out: minimum inhibitory concentration (MIC), MRSA strain # 134): 2 µg/mL (≈ 1.17 µM); MIC ([3]; read-out: minimum inhibitory concentration (MIC), MRSA strain # 143): 1 µg/mL (≈ 0.585 µM)
								CC(C)C[C@@H](N)C(=O)N[C@H]1C(=O)N[C@@H](CC(N)=O)C(=O)N[C@H]2C(=O)N[C@H]3C(=O)N[C@H](C(=O)N[C@H](C(=O)O)c4cc(O)cc(O)c4-c4cc3ccc4O)[C@H](O)c3ccc(c(Cl)c3)Oc3cc2cc(c3O[C@@H]2O[C@H](CO)[C@@H](O)[C@H](O)[C@H]2O[C@H]2C[C@](C)(N)[C@H](O)[C@H](C)O2)Oc2ccc(cc2Cl)[C@H]1O [Nor, norvancoycin, reference compound]	4 (≈ 2.79 µM)	2 (≈ 1.39 µM)	2 (≈ 1.39 µM)	2 (≈ 1.39 µM)	2 (≈ 1.39 µM)				8 (≈ 5.57 µM)	2 (≈ 1.39 µM)	minimum inhibitory concentration (MIC) ([1]; GISA (D) strain # 68): 4 µg/mL (≈ 2.79 µM); minimum inhibitory concentration (MIC) ([2]; GISA (V) strain # 68): 4 µg/mL (≈ 2.79 µM); minimum inhibitory concentration (MIC) ([3]; MRSA strain # 134): 2 µg/mL (≈ 1.39 µM); minimum inhibitory concentration (MIC) ([4]; MSSE strain # 3): 2 µg/mL (≈ 1.39 µM); minimum inhibitory concentration (MIC) ([5]; MSSA strain # 68): 2 µg/mL (≈ 1.39 µM); minimum inhibitory concentration (MIC) ([6]; MRSE strain # 24): 2 µg/mL (≈ 1.39 µM)
								CN[C@H](CC(C)C)C(=O)N[C@H]1C(=O)N[C@@H](CC(N)=O)C(=O)N[C@H]2C(=O)N[C@H]3C(=O)N[C@H](C(=O)N[C@H](C(=O)O)c4cc(O)cc(O)c4-c4cc3ccc4O)[C@H](O)c3ccc(c(Cl)c3)Oc3cc2cc(c3O[C@@H]2O[C@H](CO)[C@@H](O)[C@H](O)[C@H]2O[C@H]2C[C@](C)(N)[C@H](O)[C@H](C)O2)Oc2ccc(cc2Cl)[C@H]1O [Van, vancomycin]		2 (≈ 1.38 µM)	2 (≈ 1.38 µM)	2 (≈ 1.38 µM)	2 (≈ 1.38 µM)	2 (≈ 1.38 µM)	2 (≈ 1.38 µM)	2 (≈ 1.38 µM)	8 (≈ 5.52 µM)	2 (≈ 1.38 µM)	MIC ([1]; read-out: minimum inhibitory concentration (MIC), GISA (D) strain # 68): 8 µg/mL (≈ 5.52 µM); MIC ([1]; read-out: minimum inhibitory concentration (MIC), GISA (D) strain # 143): 4 µg/mL (≈ 2.76 µM); MIC [2, 12]: 8 µg/mL (≈ 5.52 µM); MIC [3, 12]: 2 µg/mL (≈ 1.38 µM)
